Data taken from patent US7910612B2, “4-oxy-N-[1,3,4]-thiadiazol-2-yl-benzene sulfonamides, pharmaceutical compositions and methods for their therapeutic use” (Sanofi-Aventis, priority 2005, dated 2011).
pEC50: −log10 of the molar value.

Legend:
[1] = target: T1, human PPARdelta (Homo sapiens, UniProt Q03181); assay: cellular PPARdelta assay (stably transfected HEK luciferase reporter cell line); type: cell-based
T1 construct: amino acids S139-Y441; expressed in transfected cells; host or cells: HEK (human embryo kidney) cells, stably transfected, pcDNA3 vector
T1 sequence (Q03181 139-441): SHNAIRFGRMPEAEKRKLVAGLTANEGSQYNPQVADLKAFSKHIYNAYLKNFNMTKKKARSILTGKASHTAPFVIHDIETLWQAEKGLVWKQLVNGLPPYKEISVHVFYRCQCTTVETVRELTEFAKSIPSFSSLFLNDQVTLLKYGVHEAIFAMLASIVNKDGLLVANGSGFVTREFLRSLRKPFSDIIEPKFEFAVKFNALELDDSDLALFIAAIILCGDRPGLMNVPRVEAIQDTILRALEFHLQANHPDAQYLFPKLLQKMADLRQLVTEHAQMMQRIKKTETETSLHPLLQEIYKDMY
Protocol: The potency of substances which bind to human PPARdelta and activate it in an agonistic manner is analyzed using a stably transfected HEK cell line (HEK=human embryo kidney) which is referred to here as PPARdelta reporter cell line. In analogy to the assay described for PPARalpha, the PPARdelta reporter cell line also contains two genetic elements, a luciferase reporter element (pdeltaM-GAL4-Luc-Zeo) and a PPARdelta fusion protein (GR-GAL4-humanPPARdelta-LBD) which mediates expression of the luciferase reporter element depending on a PPARdelta ligand. The stably and constitutively expressed fusion protein GR-GAL4-humanPPARdelta-LBD binds in the cell nucleus of the PPARdelta reporter cell line via the GAL4 protein portion to the GAL4 DNA binding motifs 5′-upstream of the luciferase reporter element which is stably integrated in the genome of the cell line. There is only little expression of the luciferase reporter gene in the absence of a PPARdelta ligand if fatty acid-depleted fetal calf serum (cs-FCS) is used in the assay. PPARdelta ligands bind and activate the PPARdelta fusion protein and thereby stimulate expression of the luciferase reporter gene. The luciferase which is formed can be detected by means of chemiluminescence via an appropriate substrate.
The production of the stable PPARdelta reporter cell line is based on a stable HEK-cell clone which was stably transfected with a luciferase reporter element. This step was already described above in the section “construction of the PPARalpha reporter cell line”. In a second step, the PPARdelta fusion protein (GR-GAL4-humanPPARdelta-LBD was stably introduced into this cell clone. For this purpose, the cDNA coding for the N-terminal 76 amino acids of the glucocorticoid receptor (Accession #P04150) was linked to the cDNA section coding for amino acids 1-147 of the yeast transcription factor GAL4 (Accession #P04386). The cDNA of the ligand-binding domain of the human PPARdelta receptor (amino acids S139-Y441; Accession #L07592) was cloned in at the 3′-end of this GR-GAL4 construct. The fusion construct prepared in this way (GR-GAL4-humanPPARdelta-LBD) was recloned into the plasmid pcDNA3 (Invitrogen) in order to enable constitutive expression by the cytomegalovirus promoter. This plasmid was linearized with a restriction endonuclease and stably transfected into the previously described cell clone containing the luciferase reporter element. The resulting PPARdelta reporter cell line which contains a luciferase reporter element and constitutively expresses the PPARdelta fusion protein (GR-GAL4-human PPARdelta-LBD) was isolated by selection with zeocin (0.5 mg/ml) and G418 (0.5 mg/ml).
The activity of PPARdelta agonists is determined in a 3-day assay in exact analogy to the procedure already described for the PPARalpha reporter cell line except that the PPARdelta reporter cell line and a specific PPARdelta agonist was used as a standard to control test efficacy. […] Compounds of the invention of the formula I activate the PPARdelta receptor.

[2] = test system: diabetic animal model; details: cited from earlier work
[3] = test system: obese, insulin resistant rhesus monkeys; details: cited from earlier work
[4] = test system: healthy volunteers; details: two weeks clinical trials in healthy volunteers; cited from earlier work
[5] = test system: cynomolgus monkeys; details: cited from earlier work
[6] = test system: rhesus monkeys; details: cited from earlier work

COc1ccc2oc(COc3ccc(S(=O)(=O)Nc4nnc(C(C)C)s4)cc3)cc2c1 [Example 12, N-(5-Isopropyl-[1,3,4]thiadiazol-2-yl)-4-(5-methoxy-benzofuran-2-ylmethoxy)-benzenesulfonamide]
pEC50 [1]: 6.32

CCCc1c(OCCCOc2ccc(OCC(=O)O)cc2)ccc(C(C)=O)c1O [Example L-165041]
plasma cholesterol [2]: raises plasma cholesterol

Cc1cc(SCc2sc(-c3ccc(C(F)(F)F)cc3)nc2C)ccc1OCC(=O)O [GW501516]
HDL-cholesterol [3]: raises HDL-cholesterol
plasma LDL-cholesterol [3]: decreases plasma LDL-cholesterol
insulin levels ([3]; plasma): decreases
triglycerides ([3]; plasma): decreases

CCCc1c(OCCCSc2nnc(SCC(=O)O)s2)ccc(C(C)=O)c1O [YM-16638]
plasma lipids [4]: acts in a similar manner
plasma lipids [5]: significantly lowers plasma lipids
plasma lipids [6]: significantly lowers plasma lipids
